According to patent publication US4211772A, “Benzopyran glycoside acetals and ketals” (Laboratoires Sarget, priority 1977, dated 1980):
≈ marks a conversion by molar mass, not a printed value. Read-outs that look alike come from different tables or passages of the source.

Legend:
Aldose Reductase = target: T1, Aldose Reductase (Bos taurus, UniProt P16116); assay: Inhibition of aldose reductase in vitro (enzyme from beef eye lenses, glyceraldehyde substrate); assay type: biochemical; conditions: in DMF solution, read-out: percentages of inhibition (aldose reductase); for inhibition at 100 µM: 10^-4 mole/l; for inhibition at 10 µM: 10^-5 mole/l; for inhibition at 1 µM: 10^-6 mole/l
T1 construct: The enzyme is extracted from beef eye lenses; from tissue; host or cells: beef eye lenses
Description: Inhibition of Aldose Reductase In Vitro
The reoxidation of NADPH coupled to the enzymatic reaction was followed spectrophotometrically at 340 nm.

COMT = target: T2, COMT (Rattus norvegicus, UniProt P22734); assay: Inhibition of COMT in vitro (enzyme from rat liver, 4-nitrocatechol substrate); assay type: biochemical; conditions: in dimethylsulfoxide solution, read-out: percentages of inhibition (COMT); for inhibition at 1000 µM: 10^-3 mole/l; for inhibition at 100 µM: 10^-4 mole/l; for inhibition at 10 µM: 10^-5 mole/l
T2 construct: The enzyme is extracted from rat liver; from tissue; host or cells: rat liver
T2 sequence (P22734 1-221 isoform P22734-2): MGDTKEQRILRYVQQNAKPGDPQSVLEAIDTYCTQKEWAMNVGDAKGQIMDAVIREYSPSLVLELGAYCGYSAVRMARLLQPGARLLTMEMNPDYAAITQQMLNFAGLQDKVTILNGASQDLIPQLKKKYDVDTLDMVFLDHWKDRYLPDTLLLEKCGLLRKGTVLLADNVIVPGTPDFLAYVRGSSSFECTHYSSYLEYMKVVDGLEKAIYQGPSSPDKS
Procedure: Inhibition of COMT in vitro The enzyme is extracted from rat liver by the method described by Axelrod et al, J. Biol. Chem., 233, 702(1958); its activity is measured in the presence of S-adenosyl methionine and using as substrate 4-nitrocatechol by the method described by Lee et al, J. Pharm. Sci., 66(7), 986(1977). The quantity of 4-nitrocatechol consumed was determined spectrophotometrically at 520 nm in alkaline medium.

Solubilities in water = assay type: physicochemical; conditions: water
carragenin edema = assay: Anti-inflammatory activity: carragenin edema test; assay type: in vivo; conditions: Rattus norvegicus, ip, saturated bicarbonate solution, read-out: % inhibition of carragenin edema; for inhibition in vivo at 50 mg/kg: 50 mg/kg i.p.; for inhibition in vivo at 100 mg/kg: 100 mg/kg i.p.
Procedure: Anti-inflammatory activity
This was determined by the carragenin edema test using male Wistar EOPS rats. Inflammation was induced by the injection of 0.1 ml of a suspension of 5% carragenin in physiological serum into the muscular bundle of the metatarsal region of the posterior paw of the animal. The test substance was administered i.p. in neutralized solution at the same time as the carragenin.
Edema was measured by plethysmometry at different times after the administration of the carragenin.
Tables IV and V show the percentages of inhibition as a function of time and of dosage for certain compounds of the present invention.
The above results were obtained for solutions of substantially alkaline
The reference experiments were performed using physiological serum brough
to a pH approximately the same as the pH of the solutions to be tested.

Structure (SMILES)	inhibition at 100 µM (Aldose Reductase)	inhibition at 10 µM (Aldose Reductase)	inhibition at 1 µM (Aldose Reductase)	inhibition at 1000 µM (COMT)	inhibition at 100 µM (COMT)	inhibition at 10 µM (COMT)	also measured
Cc1ccc(C2(C)O[C@@H]3[C@@H](O)[C@H](C)O[C@@H](OC[C@H]4O[C@@H](Oc5c(-c6ccc(O)c(O)c6)oc6cc(O)cc(O)c6c5=O)[C@H](O)[C@@H](O)[C@@H]4O)[C@@H]3O2)cc1 (stereo partly drawn) [No. 35, 3-O-(2,3-O,O-(α-methyl-p-methylbenzylidene)-6-α-L-rhamnosyl-β-D-glucosyl) quercetin]	100%	72%	26%	90%	74%	72%	
C[C@@H]1O[C@@H](Oc2c(-c3cc(O)c(O)c(O)c3)oc3cc(O)cc(O)c3c2=O)[C@H](O)[C@H](O)[C@H]1O [Myricitrin, reference compound]	83%	56%	9%				
COc1ccc([C@@H]2CC(=O)c3c(O)cc(O[C@@H]4O[C@H](CO[C@@H]5O[C@@H](C)[C@H](O)[C@@H](O)[C@H]5O)[C@@H](O)[C@H](O)[C@H]4O)cc3O2)cc1O [Hesperidin, reference compound]							solubility (Solubilities in water; read-out: Solubilities in water): 0.02 mg/mL (≈ 32.8 µM)
COc1ccc(C2O[C@@H]3[C@@H](O)[C@H](C)O[C@@H](OC[C@H]4O[C@@H](Oc5c(-c6ccc(O)c(O)c6)oc6cc(O)cc(O)c6c5=O)[C@H](O)[C@@H](O)[C@@H]4O)[C@@H]3O2)cc1 (stereo partly drawn) [No. 22, 3-O-(2,3-O,O-p-methoxybenzylidene-6-α-L-rhamnosyl-β-D-glucosyl)quercetin]	92%	79%	0%	80 to 100%	80 to 92%	45%	
C[C@@H]1O[C@@H](O[C@H]2[C@H](Oc3cc(O)c4c(c3)O[C@H](c3ccc(O)cc3)CC4=O)O[C@H](CO)[C@@H](O)[C@@H]2O)[C@H](O)[C@H](O)[C@H]1O [Naringin, reference compound]	33%						
C[C@@H]1O[C@@H](Oc2c(-c3cc(O)c(O)c(O)c3)oc3cc(O)cc(O)c3c2=O)[C@@H]2OC(C)(C)O[C@@H]2[C@H]1O [No. 14, 3-O-(2,3-O,O-isopropylidene-α-L-rhamnosyl)myricitin]	93%	83%	11%				
C[C@@H]1O[C@@H](OC[C@H]2O[C@@H](Oc3c(-c4ccc(O)c(O)c4)oc4cc(O)cc(O)c4c3=O)[C@H](O)[C@@H](O)[C@@H]2O)[C@@H]2OC3(O[C@@H]2[C@H]1O)C1CC2CC(C1)CC3C2 (stereo partly drawn) [No. 33, 3-O-(2,3-O,O-adamantylidene-6-α-L-rhamnosyl-β-D-glucosyl)quercetin]	100%	92%	44%		81 to 83%	33 to 36%	inhibition at 0.1 µM (Aldose Reductase; 10^-7 mole/l): 7%
COc1ccc(C2(C)O[C@@H]3[C@@H](O)[C@H](C)O[C@@H](OC[C@H]4O[C@@H](Oc5c(-c6ccc(O)c(O)c6)oc6cc(O)cc(O)c6c5=O)[C@H](O)[C@@H](O)[C@@H]4O)[C@@H]3O2)cc1 (stereo partly drawn) [No. 36, 3-O-(2,3-O,O-(α-methyl-p-methoxybenzylidene)-6-α-L-rhamnosyl-β-D-glucosyl) quercetin]	100%	69%	22%	91%		15 to 22%	
O=c1c(O)c(-c2ccc(O)c(O)c2)oc2cc(O)cc(O)c12 [quercetin, reference compound]							inhibition in vivo at 50 mg/kg (carragenin edema; 1/2 h): 0%; inhibition in vivo at 100 mg/kg (carragenin edema; 1/2 h): 2%; inhibition in vivo at 50 mg/kg (carragenin edema; 1 h, 1 h 1/2): 0%; inhibition in vivo at 50 mg/kg (carragenin edema; 1 h, 1 h): 0%; inhibition in vivo at 100 mg/kg (carragenin edema; 1 h, 1 h 1/2): 8%; inhibition in vivo at 100 mg/kg (carragenin edema; 1 h, 1 h): 0%; inhibition in vivo at 50 mg/kg (carragenin edema; 2 h, 2 h): 0%; inhibition in vivo at 100 mg/kg (carragenin edema; 2 h, 2 h): 7%; inhibition in vivo at 50 mg/kg (carragenin edema; 3 h, 3 h): 0%; inhibition in vivo at 100 mg/kg (carragenin edema; 3 h, 3 h): 0%; inhibition in vivo at 50 mg/kg (carragenin edema; 4 h, 4 h): 0%; inhibition in vivo at 100 mg/kg (carragenin edema; 4 h, 4 h): 0%; inhibition in vivo at 50 mg/kg (carragenin edema; 5 h, 5 h): 0%; inhibition in vivo at 100 mg/kg (carragenin edema; 5 h, 5 h): 0%; inhibition in vivo at 50 mg/kg (carragenin edema; 6 h, 6 h): 0%; inhibition in vivo at 100 mg/kg (carragenin edema; 6 h, 6 h): 0%
C[C@@H]1O[C@@H](OC[C@H]2O[C@@H](Oc3c(-c4ccc(O)c(O)c4)oc4cc(O)cc(O)c4c3=O)[C@H](O)[C@@H](O)[C@@H]2O)[C@@H]2OC(c3ccc(O)cc3)O[C@@H]2[C@H]1O (stereo partly drawn) [No. 23, 3-O-(2,3-O,O-p-hydroxybenzylidene-6-α-L-rhamnosyl-β-D-glucosyl)quercetin]	80%	41%		80%	90%	40%	
C[C@@H]1O[C@@H](Oc2c(-c3ccc(O)c(O)c3)oc3cc(O)cc(O)c3c2=O)[C@H](O)[C@H](O)[C@H]1O [Quercitrin, reference compound]							Solubilities in water (Solubilities in water): insoluble
O=c1ccc2cc(O[C@@H]3O[C@@H]4COC(c5ccc(O)c(O)c5)O[C@H]4[C@H](O)[C@H]3O)c(O)cc2o1 (stereo partly drawn) [No. 24, 6-O-(4,6-O,O-(3,4-dihydroxybenzylidene)-β-D-glucosyl) esculetol]	71%	0%					
C[C@@H]1O[C@@H](OC[C@H]2O[C@@H](Oc3c(-c4ccc(O)c(O)c4)oc4cc(O)cc(O)c4c3=O)[C@H](O)[C@@H](O)[C@@H]2O)[C@@H]2OC3(CCC4CCCCC4C3)O[C@@H]2[C@H]1O (stereo partly drawn) [No. 28, 3-O-(2,3-O,O-(2-perhydronaphthylidene)-6-α-L-rhamnosyl-β-D-glucosyl) quercetin]	67%	62%	0%	76%	52%	0%	
C[C@@H]1O[C@@H](OC[C@H]2O[C@@H](Oc3c(-c4ccc(O)c(O)c4)oc4cc(O)cc(O)c4c3=O)[C@H](O)[C@@H](O)[C@@H]2O)[C@@H]2OC(C)(c3ccc(Cl)cc3)O[C@@H]2[C@H]1O (stereo partly drawn) [No. 37, 3-O-(2,3-O,O-(α-methyl-p-chlorobenzylidene)-6-α-L-rhamnosyl-β-D-glucosyl) quercetin]	100%	59%	24%	100%	74%	27%	
